Test results from US10835535B2, “Certain protein kinase inhibitors” (Shanghai Fochon Pharmaceutical Co., Ltd., priority 2016, dated 2020).

What was measured:
[1] = Pharmacokinetic properties in dogs; type: in vivo; details: dog, po; male Beagle dogs, 3 mg/kg p.o., plasma
Protocol: Each test compounds was suspended in 0.5% methylcellulose (400 cP, w/v) in water.
Grouping male Beagle dogs was administered with test compound at a dose of 3 mg/kg by oral. After administering, blood samples were collected at time points of 0.25, 0.50, 1.0, 2.0, 4.0, 8.0 and 24.0 h. Standard curve was plotted based on concentrations of the samples in a suitable range, and the concentration of test compounds in plasma samples were determined by using LC-MS/MS. Pharmacokinetic parameters were calculated according to drug concentration-time curve using a non-compartmental method by Phoenix WinNonLin 6.3 software.

[2] = test system: COLO205 xenograft tumors; experiment: Tumor growth inhibition in COLO205 xenograft tumors; type: in vivo, mice; details: for TGI %: TGI = (1−T/C)×100%
Protocol: COLO205 cells were cultured with RPMI-1640 medium containing 10% fetal bovine serum (FBS) at 37° C. in 5% CO^2 incubator. Logarithmic growth phase cells were collected. COLO205 cells (5×10^6 in 200 μL PBS) were implanted subcutaneously into the left flank region, and tumor growth was monitored. Tumor volume (V) was estimated from the length (l) and width (w) of the tumor using the following formula: V=1/2×l×w^2. Treatment started when average tumor size was 100-200 mm^3.
The dosage and dosage regimen were as shown table 2. Tumor volumes and mice weight were measured 2 to 3 times every week.
Drug efficacy was assessed as Tumor Growth Inhibition (TGI) and T/C ratio. TGI was defined as (1−T/C)×100%, wherein T/C (%) presented the ratio of the change in mean tumor volume of the treated group and of the control group.

[3] = test system: JEKO-1 cells; experiment: Cell proliferation assay (MTS) in JEKO-1 cells; type: cell-based; details: Homo sapiens, 48 h
Description: (§1) MTS testing kit was purchased from Promega. The DMEM, Fetal bovine serum and Penicillin-Streptomycin were purchased from Gibco. Dimethyl sulfoxide (DMSO) was purchased from Sigma.
(§2) To investigate whether a compound is able to inhibit the activity of CDK4/6 in cells, mechanism-based assays using BE2C (ATCC® number: CRL-2268) or JEKO-1 (ATCC® number: CRL-3006) cell were developed. In the assay, inhibition of CDK4/6 was detected by the inhibition of BE2C or JEKO-1 cell cells proliferation. BE2C or JEKO-1 cell cells were cultured in culture flasks to 40-80% confluence in DMEM plus 10% fetal bovine serum. Cells were collected and plated onto 96-well plates at desired cell density (BE2C: 3000 cells/well; JEKO-1: 30000 cells/well). Plates were incubated overnight at 37° C., with 5% CO2 to adhere. Compounds were added to the plates, the final compound concentrations were 10000, 3333, 1111, […], 123.5, 41.2, 13.7, 4.6 and 1.5 nM. Place plates at 37° C., with 5% CO2 for 48 h. After removing the medium, 20 μl MTS/100 μl medium mixture solution were added to each well and incubate the plates for exactly 2 hours. Stop the reaction by adding 25 μl 10% SDS per well. Measure absorbance at 490 nm and 650 nm (reference wavelength). IC50 was calculated using GraphPad Prism 5.0.
(§3) Select compounds prepared as described above were assayed according to the biological procedures described herein. “+++” stands for IC50 value between greater than about 10 nM to about 100 nM. “++” stands for IC50 value between greater than about 100 nM to about 1 μM. “+” stands for IC50 value greater than 1 μM.

[4] = test system: BE2C cells; experiment: Cell proliferation assay (MTS) in BE2C cells; type: cell-based; details: Homo sapiens, BE(2)-C, 48 h
Description: as §1, §2, §3

| SMILES | AUC(0-inf) [1] | AUC(0-t) [1] | Cmax [1] | half-life [1] | T/C % ([2]; 30 mg/kg PO QD × 14 days) | TGI % ([2]; 30 mg/kg PO QD × 14 days) | IC50 [3] | IC50 [4] | T/C % ([2]; 60 mg/kg PO QD × 14 days) | TGI % ([2]; 60 mg/kg PO QD × 14 days) |
| --- | --- | --- | --- | --- | --- | --- | --- | --- | --- | --- |
| CN1CCN(c2ccc(Nc3ncc4sc(C(=O)N(C)C)c(C5CCCC5)c4n3)nc2)CC1 [Reference Compound 1, 7-cyclopentyl-N,N-dimethyl-2-(5-(4-methylpiperazin-1-yl)pyridin-2-ylamino)thieno[3,2-d]pyrimidine-6-carboxamide, reference compound] | 103 ng·h/mL | 83 ng·h/mL | 36 ng/mL | 5.36 h |  |  |  |  |  |  |
| CCN1CCC(N2CCN(c3ccc(Nc4ncc5sc(C(=O)N(C)C)c(C6CCCC6)c5n4)nc3)CC2)CC1 [Example 2, 7-cyclopentyl-2-((5-(4-(1-ethylpiperidin-4-yl)piperazin-1-yl)pyridin-2-yl)amino)-N,N-dimethylthieno[3,2-d]pyrimidine-6-carboxamide] | 7010 ng·h/mL | 2500 ng·h/mL | 127 ng/mL | 26 h | 0.88% | 99.12% | 100 to 1000 nM | 10 to 100 nM |  |  |
| CN1CCN(C2CCN(c3ccc(Nc4ncc5sc(C(=O)N(C)C)c(C6CCCC6)c5n4)nc3)CC2)CC1 [Example 5, 7-cyclopentyl-N,N-dimethyl-2-((5-(4-(4-methylpiperazin-1-yl)piperidin-1-yl)pyridin-2-yl)amino)thieno[3,2-d]pyrimidine-6-carboxamide] | 7520 ng·h/mL | 4660 ng·h/mL | 312 ng/mL | 16.1 h |  |  | 10 to 100 nM | 10 to 100 nM | −2.31% | 102.31% |
| CN1CCC(N2CCN(c3ccc(Nc4ncc5sc(C(=O)N(C)C)c(C6CCCC6)c5n4)nc3)CC2)CC1 [Example 3, 7-cyclopentyl-N,N-dimethyl-2-((5-(4-(1-methylpiperidin-4-yl)piperazin-1-yl)pyridin-2-yl)amino)thieno[3,2-d]pyrimidine-6-carboxamide] |  |  |  |  |  |  | 100 to 1000 nM | 10 to 100 nM |  |  |
| CCN1CCN(C2CCN(c3ccc(Nc4ncc5sc(C(=O)N(C)C)c(C6CCCC6)c5n4)nc3)CC2)CC1 [Example 6, 7-cyclopentyl-2-((5-(4-(4-ethylpiperazin-1-yl)piperidin-1-yl)pyridin-2-yl)amino)-N,N-dimethylthieno[3,2-d]pyrimidine-6-carboxamide] | 7340 ng·h/mL | 5030 ng·h/mL | 404 ng/mL | 13.2 h |  |  | 10 to 100 nM | 10 to 100 nM | −2.97% | 102.97% |
| CN(C)C(=O)c1sc2cnc(Nc3ccc(N4CCC(N5CCOCC5)CC4)cn3)nc2c1C1CCCC1 [Example 7, 7-cyclopentyl-N,N-dimethyl-2-((5-(4-morpholinopiperidin-1-yl)pyridin-2-yl)amino)thieno[3,2-d]pyrimidine-6-carboxamide] |  |  |  |  |  |  |  | 10 to 100 nM |  |  |
| CN(C)C(=O)c1cc2cnc(Nc3ccc(N4CCNCC4)cn3)nc2n1C1CCCC1 [Ribociclib, reference compound] |  |  |  |  |  |  |  |  | 25.6% | 74.40% |
| CN(C)C(=O)c1sc2cnc(Nc3ccc(N4CCN(C5CCNCC5)CC4)cn3)nc2c1C1CCCC1 [Example 1, 7-cyclopentyl-N,N-dimethyl-2-((5-(4-(piperidin-4-yl)piperazin-1-yl)pyridin-2-yl)amino)thieno[3,2-d]pyrimidine-6-carboxamide] |  |  |  |  |  |  | 100 to 1000 nM |  |  |  |
| CN(C)C(=O)c1sc2cnc(Nc3ccc(N4CCC(N5CCNCC5)CC4)cn3)nc2c1C1CCCC1 [Example 4, 7-cyclopentyl-N,N-dimethyl-2-((5-(4-(piperazin-1-yl)piperidin-1-yl)pyridin-2-yl)amino)thieno[3,2-d]pyrimidine-6-carboxamide] |  |  |  |  |  |  |  | 100 to 1000 nM |  |  |
